Measured values published in ChEMBL document CHEMBL4373717, “Coumarin-containing hybrids and their anticancer activities” (Eur J Med Chem, 2019).
pIC50: −log10 of the molar value. In brackets after ≈: the same amount, converted by molar mass. Each block holds one compound with its values, some of them ahead of it.

Columns and labels:
AGS = assay: Growth inhibition of human AGS cells; assay type: functional
[1] = Growth inhibition of human KATO III cells; assay type: functional
SNU1 = assay: Growth inhibition of human SNU1 cells; assay type: functional
SK-OV-3 = assay: Growth inhibition of human SKOV3 cells; assay type: functional
OVCAR-8 = assay: Growth inhibition of human OVCAR8 cells; assay type: functional
BXPC-3 = assay: Growth inhibition of human BxPC3 cells; assay type: functional
PANC-1 = assay: Growth inhibition of human PANC1 cells; assay type: functional
T-24 = assay: Growth inhibition of human T24 cells; assay type: functional
WiDr = assay: Growth inhibition of human WiDr cells; assay type: functional
HepG2 [2] = assay: Growth inhibition of human HepG2 cells; assay type: functional
SN12C = assay: Growth inhibition of human SN12C cells; assay type: functional
K562 [3] = assay: Growth inhibition of human K562 cells; assay type: functional
MCF7 [4] = assay: Growth inhibition of human MCF7 cells; assay type: functional
HCT-116 = assay: Anticancer activity against human HCT116 cells; assay type: functional, cell-based
HepG2 [5] = assay: Potency index, ratio of doxorubicin IC50 to compound IC50 for anticancer activity against human HepG2 cells by MTT assay; assay type: functional
HepG2 [6] = assay: Anticancer activity against human HepG2 cells by MTT assay; assay type: functional, cell-based
MDA-MB-231 [7] = assay: Cytotoxicity against human MDA-MB-231 cells assessed as reduction in cell viability after 24 hrs by MTT assay; assay type: functional, cell-based; settings: Homo sapiens, MDA-MB-231, 24 h
MDA-MB-231 [8] = assay: Cytotoxicity against human MDA-MB-231 cells assessed as reduction in cell viability after 24 hrs in hypoxic condition by MTT assay; settings: MDA-MB-231, 24 h
A549 [9] = assay: Cytotoxicity against human A549 cells assessed as reduction in cell viability after 24 hrs by MTT assay; assay type: functional, cell-based; settings: A549, 24 h
A549 [10] = assay: Anticancer activity against human A549 cells by MTT assay; assay type: functional, cell-based
MDA-MB-231 [11] = assay: Anticancer activity against human MDA-MB-231 cells by MTT assay; assay type: functional, cell-based
HeLa [12] = assay: Anticancer activity against human HeLa cells by MTT assay; assay type: functional, cell-based
K562 [13] = assay: Anticancer activity against human K562 cells by MTT assay; assay type: functional, cell-based
L02 = assay: Cytotoxicity against human L02 cells assessed as reduction in cell viability after 24 hrs by MTT assay; assay type: cell-based; settings: L02, 24 h
HEK-293T = assay: Cytotoxicity against HEK293T cells assessed as reduction in cell viability after 24 hrs by MTT assay; assay type: cell-based; settings: Homo sapiens
HeLa [14] = assay: Cytotoxicity against human HeLa cells assessed as reduction in cell viability after 24 hrs by MTT assay; assay type: functional, cell-based
HepG2 [15] = assay: Antiproliferative activity against human HepG2 cells after 72 hrs by ELISA; assay type: functional, cell-based; settings: HepG2, 72 h
Caco-2 = assay: Antiproliferative activity against human Caco2 cells after 72 hrs by ELISA; assay type: functional, cell-based; settings: Caco-2, 72 h
COS-7 = assay: Cytotoxicity against African green monkey COS7 cells assessed as reduction in cell viability by MTT assay; assay type: functional, cell-based; settings: Chlorocebus aethiops
PC-3 = assay: Cytotoxicity against human PC3 cells assessed as reduction in cell viability by MTT assay; assay type: functional, cell-based
769-P = assay: Anticancer activity against human 769-P cells by MTT assay; assay type: functional, cell-based
HT-29 = assay: Cytotoxicity against human HT-29 cells assessed as reduction in cell viability by MTT assay; assay type: functional, cell-based
A549 [16] = assay: Cytotoxicity against human A549 cells assessed as reduction in cell viability by MTT assay; assay type: functional, cell-based
HeLa [17] = assay: Cytotoxicity against human HeLa cells assessed as reduction in cell viability by MTT assay; assay type: functional, cell-based
HeLa [18] = assay: Antiproliferative activity against human HeLa cells by MTT assay; assay type: functional, cell-based
DLD-1 = assay: Cytotoxicity against human DLD1 cells assessed as reduction in cell viability; assay type: functional, cell-based
Ishikawa = assay: Growth inhibition of human Ishikawa cells relative to control; assay type: functional
NCI-H460 [19] = assay: Growth inhibition of human NCI-H460 cells; assay type: functional
SF-268 = assay: Growth inhibition of human SF268 cells; assay type: functional
HepG2 [20] = assay: Cytotoxicity against human HepG2 cells assessed as reduction in cell viability after 48 hrs by MTT assay; assay type: functional, cell-based; settings: HepG2, 48 h
A549 [21] = assay: Growth inhibition of human A549 cells; assay type: functional
NCI-H460 [22] = assay: Growth inhibition of human H460 cells; assay type: functional
NCI-H1650 = assay: Growth inhibition of human NCI-H1650 cells; assay type: functional
[23] = Cytotoxicity against BHK cells assessed as reduction in cell viability by MTT assay; settings: Cricetinae
MCF7 [24] = assay: Cytotoxicity against human MCF7 cells assessed as reduction in cell viability by MTT assay; assay type: functional, cell-based; settings: Homo sapiens, MCF7

GI50 (AGS): 0.07 to 0.41 µM | GI50 (SNU1): 0.07 to 0.41 µM | GI50 (SK-OV-3): 0.07 to 0.41 µM | GI50 (OVCAR-8): 0.07 to 0.41 µM | GI50 (BXPC-3): 0.07 to 0.41 µM | GI50 (PANC-1): 0.07 to 0.41 µM | GI50 (HepG2 [2]): 0.07 to 0.41 µM | GI50 (K562 [3]): 0.07 to 0.41 µM | GI50 (MCF7 [4]): 0.07 to 0.41 µM
SMILES: CCN(CC)c1ccc2cc(-c3nc4ccccc4n3C)c(=O)oc2c1
GI50 [1]: 0.07 to 0.41 µM | GI50 (T-24): 0.07 to 0.41 µM | GI50 (WiDr): 0.07 to 0.41 µM | GI50 (SN12C): 0.07 to 0.41 µM

pIC50 (HCT-116): 5.58
SMILES: NS(=O)(=O)c1ccc(Nc2nn3c(Cc4cc(=O)oc5ccccc45)nnc3s2)cc1

pIC50 (HepG2 [6]): 6.42
SMILES: O=c1ccc2ccc(OCCn3cc(COc4ccc5ccc(=O)oc5c4)nn3)cc2o1
Ratio IC50 (HepG2 [5]): 2.1

SMILES: COc1cccc2c1C(=O)c1c(O)c3c(c(O)c1C2=O)C[C@@](O)(C(=O)CO)C[C@@H]3O[C@H]1C[C@H](N)[C@H](O)[C@H](C)O1 [DOXORUBICIN]
pIC50 (MDA-MB-231 [7]): 5.29 to 5.40 | pIC50 (MDA-MB-231 [8]): 6.22 | pIC50 (A549 [9]): 5.29 to 5.40 | IC50 (A549 [10]): 0.54 to 0.6 µg/mL (≈ 0.994 to 1.1 µM) | IC50 (MDA-MB-231 [11]): 0.45 to 0.89 µg/mL (≈ 0.828 to 1.64 µM) | IC50 (HeLa [12]): 0.54 to 0.6 µg/mL (≈ 0.994 to 1.1 µM) | IC50 (K562 [13]): 0.54 to 0.6 µg/mL (≈ 0.994 to 1.1 µM) | GI50 (MCF7 [4]): 0.04 to 0.09 µM | pIC50 (L02): 5.96 | pIC50 (HEK-293T): 5.42 | pIC50 (HeLa [14]): 5.29 to 5.40 | pIC50 (HepG2 [15]): 5.39 | pIC50 (Caco-2): 5.29 | pIC50 (COS-7): 5.52 to 5.69 | pIC50 (PC-3): 5.67 to 6.09 | pIC50 (769-P): 6.05 to 6.35 | pIC50 (HepG2 [6]): 6.05 to 6.35 | pIC50 (HT-29): 5.67 to 6.09 | pIC50 (A549 [16]): 5.67 to 6.09 | pIC50 (HeLa [17]): 5.52 to 6.09 | pIC50 (HeLa [18]): 5.96 | pIC50 (DLD-1): 3.79 | growth inhibition (GI) (Ishikawa): 11.55 - 95.52% | GI50 (NCI-H460 [19]): 0.04 to 0.09 µM | GI50 (SF-268): 0.04 to 0.09 µM | pIC50 (HepG2 [20]): 5.52

SMILES: COc1ccc(C(=O)CC(c2c(O)c3ccccc3oc2=O)c2c(O)c3ccccc3oc2=O)c(O)c1
GI50 (A549 [21]): 33.3 µM | GI50 (NCI-H460 [22]): 35.7 µM | GI50 (NCI-H1650): 50.1 µM

SMILES: CN(Cc1cnc2nc(N)nc(N)c2n1)c1ccc(C(=O)N[C@@H](CCC(=O)O)C(=O)O)cc1 [METHOTREXATE]
pIC50 [23]: 3.82 | pIC50 (MCF7 [24]): 4.57
